Where two headings read alike, the source gives them in different places.
Tests used:
N9 microglial cells = assay: anti-inflammatory assay, LPS-induced microglial activation (NO release); format: cell-based, mouse; details: bacterial lipopolysaccharide, derivative 1-10 μM, 24 hr
Procedure: Anti-inflammatory assay. Mouse N9 microglial cells plated in DME with 7.5% DFCS were treated with 10 μg/ml bacterial lipopolysaccharide (Sigma) alone or in the presence of the Fisetin derivatives (1-10 μM) or Fisetin (10 μM) as a positive control. After 24 hr the medium was removed, spun briefly to remove floating cells and 100 μl assayed for NO using 100 μl of the Griess Reagent (Sigma) in a 96 well plate. After incubation for 10 min at room temperature the absorbance at 550 nm was read on a microplate reader.
Three secondary screens allowed assessment of three key activities of Fisetin that are highly relevant to stroke, as well as other neurological disorders: maintenance of glutathione (GSH), the major endogenous cellular antioxidant, inhibition of LPS-induced microglial activation, an indicator of anti-inflammatory activity and PC12 cell differentiation, a measure of neurotrophic activity. All of these activities are relevant to the nerve cell loss seen in stroke (Gelderblom, et al., Stroke. 2009, 40 (5), 1849-1857; Pandya, et al., Cent. Nerv. Syst. Agents. Med. Chem. (2011) Apr. 27; Lewerenz, et al., J. Neurochem. (2010) 113 (2), 502-504). […] To assess GSH maintenance, total intracellular GSH levels after a 24 hr treatment with the compound both in the absence and presence of glutamate, an inducer of GSH loss and oxidative stress (Tan, et al., Curr. Top. Med. Chem. (2001) 1, 497-506; Maher, et al., Free Radical Research. (2006) 40 (10), 1105-1111) was measured Inhibition of LPS-induced microglial activation was determined by treating N9 mouse microglial cells with LPS alone and in the presence of the compounds and assaying NO release into the medium 24 hr later (Zheng, et al., Int. Immunopharmacol. (2008) 8, (3), 484-494). PC12 cell differentiation was determined by treating PC12 cells with the compounds and looking at neurite outgrowth after 24 hr. In all cases, Fisetin was used as a positive control (Sagara, et al., J. Neurochem. (2004) 90, 1144-1155).
The roles of the four different hydroxyl groups in the activity of Fisetin were studied. […] Cell viability was determined after 24 hr by the MTT assay. The ability to maintain GSH (GSH) was determined by treating HT22 cells with different doses of each derivative (1-10 μM) in the presence of 5 mM glutamate. After 24 hr cell extracts were prepared and analyzed for total GSH. Fisetin (10 μM) was used as a positive control. The ability to induce PC12 cell differentiation (PC12 diff'n) was determined by treating PC12 cells in N2 medium with different doses of each derivative (1-10 μM) for 24 hr. Differentiation was assessed by visual inspection with Fisetin (10 μM) as a positive control. Anti-inflammatory activity (microglia) was assessed in N9 microglial cells treated with bacterial lipopolysaccharide alone or in the presence different doses of each derivative (1-10 μM) for 24 hr. Fisetin was used as a positive control. TEAC values, a measure of direct antioxidant activity, were determined using the ABTS+ decolorization assay.

Nrf2 = Nrf2 induction, SDS-PAGE and Western blotting of nuclear extracts; format: cell-based; details: cells treated 1, 2 and 4 hr at most protective concentration
Procedure: SDS-PAGE and immunoblotting. For immunoblotting of Nrf2, nuclear extracts were prepared as described (Schreiber, et al., Nucleic Acids Res. (1989) 17 (15), 6419) from untreated cells and cells treated with the Fisetin derivatives for 1, 2 and 4 hr. Fisetin was used as a positive control. […] Protein concentrations were determined using the BCA protein assay (Pierce). Equal amounts of protein were solubilized in 2.5× SDS-sample buffer, separated on 10% SDS-polyacrylamide gels and transferred to nitrocellulose. Equal loading and transfer of the samples was confirmed by staining the nitrocellulose with Ponceau-S. Transfers were blocked for 1 hr at room temperature with 5% nonfat milk in TBS/0.1% Tween 20 and then incubated overnight at 4° C. in the primary antibody diluted in 5% BSA in TBS/0.05% Tween 20. The primary antibodies used were: anti-Nrf2 (#SC13032; 1/1000) from Santa Cruz Biotechnology (Santa Cruz, Calif.) and anti-β-actin (#5125; 1/20,000) from Cell Signaling (Beverly, Mass.). The transfers were rinsed with TB S/0.05% Tween 20 and incubated for 1 hr at room temperature in horseradish peroxidase-goat anti-rabbit or goat anti-mouse (Biorad, Hercules, Calif.) diluted 1/5000 in 5% nonfat milk in TBS/0.1% Tween 20. The immunoblots were developed with the Super Signal reagent (Pierce, Rockford, Ill.).
The transcription factor Nrf2 plays a key role in regulating GSH metabolism in many different cell types (Lewerenz, et al., Antioxidant & Redox Signaling. (2011) 14, 1449-1465). We have shown that Fisetin can induce Nrf2 and this correlates with its ability to enhance GSH levels (Maher, P. et al., Genes. Nutr. (2009) Sep. 10). To determine if the derivatives which can maintain GSH levels do so by increasing Nrf2 we looked at Nrf2 levels in the nuclei of derivative-treated cells using Fisetin as a positive control (Table 4). […] This was particularly true for the derivatives based on the quinoline scaffold where none of them increased Nrf2 despite being very effective at maintaining GSH levels.
The ability of the derivatives that maintain GSH levels to induce the transcription factor Nrf2 was assayed by SDS-PAGE and Western blotting of nuclear extracts of untreated and derivative-treated cells. Fisetin treatment was used as a positive control.

[1] = test system: embolic strokes in rabbits; assay: rabbit small clot embolic stroke model (RSCEM); format: in vivo
Excerpt: The ability of polyphenol analogs to treat, prevent and/or mitigate one or more symptoms of stroke can also be evaluated in in vivo assays. Such assays are known in the art and find use. One applicable in vivo screening assay is the rabbit clot embolic stroke model, discussed, e.g., in Lapchak, et al., Stroke (2002) 33(9):2279-84 and Lapchak, Exp Neurol. (2007) 205(2):407-13. The rabbit small clot embolic stroke model (RSCEM) and rabbit large clot embolic stroke model (RLCEM) can be used to determine the potential neuroprotective properties and safety profile of test polyphenol analogs after an embolic stroke. Rabbits are embolized by injecting small blood clots (RSCEM) or large blood clots (RLCEM) into the cerebral circulation. Behavioral analysis is conducted 24 hours later, allowing for determination of the effective stroke dose (ES50) or clot amount (milligrams) that produces severe neurological deficits in 50% of rabbits. A drug is considered neuroprotective if it increases the ES50 compared with the vehicle-treated control group.
Either vehicle or bolus injections of chlorogenic acid were administered intravenously over 1 minute starting 5 minutes following embolization using a suspension of small-sized blood clots. In this series of studies, CGA was administered at 50 mg/kg. Behavioral analysis was conducted at 24 hours following treatment, which allowed for the construction of quantal dose-response analysis curves. […] For the superimposed graphs, normal animals are plotted on the y-axis at 0% and abnormal animals are plotted at 100%. […] Moreover, CGA increased the P50 value (the clot dose that produces abnormality in 50% of a treatment group) compared to vehicle control. For a detailed discussion of the methods used to fit the quantal data to a sigmoidal curve, see Zivin and Waud. The pharmacology of chlorogenic acid in the rabbit small clot embolic stroke model (RSCEM) has been published (Lapchak, Exp Neurol. 2007 205(2):407-13). In the manuscript, it is shown that CGA has a therapeutic window of 60 minutes in the RSCEM. FIG. 2 presents the therapeutic window data.
Using the RSCEM assay described above for CGA, the effects of Fisetin (50 mg/kg) on behavioral outcome measured 24 hours following embolization is tested.

[2] = test system: embolic strokes in rabbits; details: RSCEM, as published in the manuscript; cited from earlier work
PC12 cells = assay: glucose starvation assay; format: cell-based; details: PC12 cells starved for glucose, MTT 24 hr
Procedure: FIG. 5C—PC12 cells were glucose-deprived then were incubates in the absence or presence of Baicalein. Cell viability was determined 24 hr later using the MTT assay. […] When these cells are starved for glucose, there is approximately 70% maximal survival in the presence of NGF. Baicalein promotes over 80% survival (FIG. 5C).

Row | Compound | microglia (anti-inflammatory activity) (N9 microglial cells) [%] | Nrf2 (induction of transcription factor Nrf2) (Nrf2) | also measured
1 | Cc1cc2oc(-c3ccc(N4CCCC4)cc3)c(O)c(=O)c2cc1C [CMS-122, 3-hydroxy-6,7-dimethyl-2-(4-(pyrrolidin-1-yl)phenyl)-4H-chromen-4-one] | 0 | No | 
2 | Cc1cc2oc(-c3ccc(N(C)C)cc3)c(O)c(=O)c2cc1C [CMS-117, 2-(4-(dimethylamino)phenyl)-3-hydroxy-6,7-dimethyl-4H-chromen-4-one] | 11 | No | 
3 | O=C(/C=C/c1ccc(O)c(O)c1)c1ccc2ccccc2c1O [CMS-034, (E)-3-(3,4-dihydroxyphenyl)-1-(1-hydroxynaphthalen-2-yl)prop-2-en-1-one] | 75 | Yes | 
4 | Cc1cc(O)c(C(=O)/C=C/c2ccc(O)c(O)c2)cc1C [CMS-011, (E)-3-(3,4-dihydroxyphenyl)-1-(2-hydroxy-4,5-dimethylphenyl)prop-2-en-1-one] | 94 | Yes | 
5 | O=C(/C=C/c1ccc(O)c(O)c1)O[C@@H]1C[C@](O)(C(=O)O)C[C@@H](O)[C@H]1O [Chlorogenic Acid, 1,3,4,5-tetrahydroxy-cyclohexanecarboxylic acid 3-(3,4-dihydroxycinnamate)] |  |  | behavior when administered 1 hour following embolization ([1]; 1 hour following embolization): effective at improving behavior; behavior when administered 3 hours following embolization ([1]; 3 hours following embolization): neither improve behavior; therapeutic window ([1]; time post-embolization, FIG. 2): 60 min; therapeutic window [2]: 60 min
6 | CN(C)c1ccc(-c2oc3c(ccc4ccccc43)c(=O)c2O)cc1 [CMS-118, 2-(4-(dimethylamino)phenyl)-3-hydroxy-4H-benzo[h]chromen-4-one] | 0 | No | 
7 | NGF: NGF, comparator giving approximately 70% maximal survival of glucose-starved PC12 cells |  |  | survival (PC12 cells): approximately 70%
